Assay results as given in US20250230165A1, “HETEROCYCLIC COMPOUNDS FOR USE IN THE TREATMENT OF CANCER” (ARTIOS PHARMA LIMITED, priority 2021, published 2025).

Molecular target: T1, Human Polθ polymerase domain (aa1820-2590) (Homo sapiens, UniProt O75417)
T1 construct: Human Polθ polymerase domain (aa1820-2590) was expressed in E. coli; made in house; host or cells: E. coli
T1 sequence (O75417 1820-2590): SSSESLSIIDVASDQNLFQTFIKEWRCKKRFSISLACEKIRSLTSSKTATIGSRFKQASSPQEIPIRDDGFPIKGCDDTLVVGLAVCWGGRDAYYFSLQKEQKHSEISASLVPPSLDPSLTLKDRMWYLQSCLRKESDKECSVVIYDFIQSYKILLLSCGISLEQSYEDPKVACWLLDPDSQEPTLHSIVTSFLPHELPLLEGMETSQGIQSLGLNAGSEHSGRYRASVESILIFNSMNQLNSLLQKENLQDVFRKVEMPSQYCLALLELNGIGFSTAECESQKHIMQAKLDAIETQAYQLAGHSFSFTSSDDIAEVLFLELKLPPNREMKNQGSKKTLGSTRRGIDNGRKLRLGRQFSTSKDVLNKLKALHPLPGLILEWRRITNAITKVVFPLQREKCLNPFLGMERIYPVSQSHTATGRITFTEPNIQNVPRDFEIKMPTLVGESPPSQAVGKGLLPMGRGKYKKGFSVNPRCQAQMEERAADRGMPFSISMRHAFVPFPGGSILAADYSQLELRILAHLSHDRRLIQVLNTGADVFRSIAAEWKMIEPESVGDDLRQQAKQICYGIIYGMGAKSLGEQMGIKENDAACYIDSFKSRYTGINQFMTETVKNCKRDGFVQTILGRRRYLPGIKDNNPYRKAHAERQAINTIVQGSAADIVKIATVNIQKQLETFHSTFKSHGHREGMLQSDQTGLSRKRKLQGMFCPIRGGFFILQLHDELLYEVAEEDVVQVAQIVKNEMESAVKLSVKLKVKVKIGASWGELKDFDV
Test: Polθ Polymerase Domain Kinact/KI Assay (PicoGreen)
Type: biochemical
Settings: 0.8 nM Polθ, 100 nM DNA substrate, kobs vs [I] fit for 2-step covalent inhibitor
Outline: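 Kinact and KI derive from fitting kobs versus [I], where kobs were fitted from EDTA-stopped PicoGreen time courses (up to 60 min) in Tris pH 7.5 buffer with 1% DMSO, 0.8 nM enzyme, 100 nM DNA and […].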

Kinact/Kl [M⁻¹ s⁻¹] | Compound
1.24e+06 | C=CC(=O)N1Cc2ccc(CN3C[C@H]4CC(=O)N(c5cc(C(F)(F)F)cc(C)n5)[C@@H]4C(=O)N(C)c4cccc(Cl)c43)nc2[C@@H]1CC#N (racemic) [Example 289b, 2-((S/R)-6-acryloyl-2-(((3aR,11aS)-6-chloro-10-methyl-1-(6-methyl-4-(trifluoromethyl)pyridin-2-yl)-2,11-dioxo-1,2,3,3a,4,10,11,11a-octahydro-5H-benzo[b]pyrrolo[2,3-f][1,4]diazocin-5-yl)methyl)-6,7-dihydro-5H-pyrrolo[3,4-b]pyridin-7-yl)acetonitrile]
2.02e+06 | C=CC(=O)N1Cc2nc(CN3C[C@H]4CC(=O)N(c5cc(C(F)(F)F)cc(C)n5)[C@@H]4C(=O)N(C)c4cccc(Cl)c43)ccc2[C@@H]1CC#N (racemic) [Example 290a]
1.48e+06 | C=CC(=O)N1Cc2ncc(CN3C[C@H]4CC(=O)N(c5cc(C(F)(F)F)cc(C)n5)[C@@H]4C(=O)N(C)c4cccc(Cl)c43)cc2[C@@H]1CC#N (racemic) [Example 291b, 2-((S/R)-6-acryloyl-3-(((3aR,11aS)-6-chloro-10-methyl-1-(6-methyl-4-(trifluoromethyl)pyridin-2-yl)-2,11-dioxo-1,2,3,3a,4,10,11,11a-octahydro-5H-benzo[b]pyrrolo[2,3-f][1,4]diazocin-5-yl)methyl)-6,7-dihydro-5H-pyrrolo[3,4-b]pyridin-5-yl)acetonitrile]
2.97e+06 | C=CC(=O)N1Cc2cc(CN3C[C@H]4CC(=O)N(c5cc(C(F)(F)F)cc(C)n5)[C@@H]4C(=O)N(C)c4cccc(Cl)c43)cnc2[C@@H]1CC#N (racemic) [Example 292a, 2-((S/R)-6-acryloyl-3-(((3aR,11aS)-6-chloro-10-methyl-1-(6-methyl-4-(trifluoromethyl)pyridin-2-yl)-2,11-dioxo-1,2,3,3a,4,10,11,11a-octahydro-5H-benzo[b]pyrrolo[2,3-f][1,4]diazocin-5-yl)methyl)-6,7-dihydro-5H-pyrrolo[3,4-b]pyridin-7-yl)acetonitrile]
880000 | C=CC(=O)N1Cc2nc(CN3C[C@H]4CC(=O)N(c5cc(C(F)(F)F)cc(C)n5)[C@@H]4C(=O)N(C)c4cccc(Cl)c43)cn2C[C@H]1C(F)(F)F (racemic) [Example 293a, (3aR,11aS)-5-(((S/R)-7-acryloyl-6-(trifluoromethyl)-5,6,7,8-tetrahydroimidazo[1,2-a]pyrazin-2-yl)methyl)-6-chloro-10-methyl-1-(6-methyl-4-(trifluoromethyl)pyridin-2-yl)-1,3a,4,5,10,11a-hexahydro-2H-benzo[b]pyrrolo[2,3-f][1,4]diazocine-2,11(3H)-dione]
2.48e+06 | C=CC(=O)N1Cc2cc(CN3C[C@H]4CC(=O)N(c5cc(C(F)(F)F)cc(C)n5)[C@@H]4C(=O)N(C)c4cccc(Cl)c43)nn2C[C@@H]1C (racemic) [Example 294b, (3aR,11aS)-5-(((S/R)-5-acryloyl-6-methyl-4,5,6,7-tetrahydropyrazolo[1,5-a]pyrazin-2-yl)methyl)-6-chloro-10-methyl-1-(6-methyl-4-(trifluoromethyl)pyridin-2-yl)-1,3a,4,5,10,11a-hexahydro-2H-benzo[b]pyrrolo[2,3-f][1,4]diazocine-2,11(3H)-dione]
2.31e+06 | Cc1cc(C(F)(F)F)cc(N2C(=O)C[C@@H]3CN(Cc4ccc5c(c4)CN(C(=O)/C=C/CN(C)C)[C@H]5CC#N)c4c(Cl)cccc4N(C)C(=O)[C@H]32)n1 (racemic) [Example 310a, 2-((S/R)-5-(((3aR,11aS)-6-chloro-10-methyl-1-(6-methyl-4-(trifluoromethyl)pyridin-2-yl)-2,11-dioxo-1,2,3,3a,4,10,11,11a-octahydro-5H-benzo[b]pyrrolo[2,3-f][1,4]diazocin-5-yl)methyl)-2-((E)-4-(dimethylamino)but-2-enoyl)isoindolin-1-yl)acetonitrile]
1.22e+06 | Cc1cc(C(F)(F)F)cc(N2C(=O)C[C@@H]3CN(Cc4ccc5c(c4)[C@H](CC#N)N(C(=O)/C=C/CN(C)C)C5)c4c(Cl)cccc4N(C)C(=O)[C@H]32)n1 (racemic) [Example 311b, 2-((S/R)-6-(((3aR,11aS)-6-chloro-10-methyl-1-(6-methyl-4-(trifluoromethyl)pyridin-2-yl)-2,11-dioxo-1,2,3,3a,4,10,11,11a-octahydro-5H-benzo[b]pyrrolo[2,3-f][1,4]diazocin-5-yl)methyl)-2-((E)-4-(dimethylamino)but-2-enoyl)isoindolin-1-yl)acetonitrile]
1.9e+06 | C=CC(=O)N1Cc2ccc(CN3C[C@H]4CC(=O)N(c5cc(C(F)(F)F)cc(C)n5)[C@@H]4C(=O)N(C)c4cccc(C)c43)nc2[C@H]1CC#N (racemic) [Example 318a, 2-((R/S)-6-acryloyl-2-(((3aR,11aS)-6,10-dimethyl-1-(6-meth-yl-4-(trifluorometh-yl)pyridin-2-yl)-2,11-dioxo-1,2,3,3a, 4,10,11,11a-octa-hydro-5H-benzo[b]pyrrolo[2,3-f][1,4]diazocin-5-yl)meth-yl)-6,7-dihydro-5H-pyrrolo[3,4-b]pyr-idin-7-yl)acetonitrile]
1.56e+06 | C=CC(=O)N1Cc2ccc(CN3C[C@H]4CC(=O)N(c5cc(C(F)(F)F)cc(C)n5)[C@@H]4C(=O)N(C)c4cccc(C)c43)nc2[C@@H]1CC#N (racemic) [Example 318b, 2-((S/R)-6-acryloyl-2-(((3aR,11aS)-6,10-dimethyl-1-(6-meth-yl-4-(trifluorometh-yl)pyridin-2-yl)-2,11-dioxo-1,2,3,3a, 4,10,11,11a-octa-hydro-5H-benzo[b]pyrrolo[2,3-f][1,4]diazocin-5-yl)meth-yl)-6,7-dihydro-5H-pyrrolo[3,4-b]pyr-idin-7-yl)acetonitrile]
2.17e+06 | C=CC(=O)N1Cc2nc(CN3C[C@H]4CC(=O)N(c5cc(C(F)(F)F)cc(C)n5)[C@@H]4C(=O)N(C)c4cccc(C)c43)ccc2[C@H]1CC#N (racemic) [Example 319a, 2-((S/R)-6-acryloyl-2-(((3aR,11aS)-6,10-dimethyl-1-(6-meth-yl-4-(trifluorometh-yl)pyridin-2-yl)-2,11-dioxo-1,2,3,3a,4,10,11,11a-octahydro-5H-benzo [b]pyrrolo[2,3-][1,4]diazocin-5-yl)meth-yl)-6,7-dihydro-5H-pyrrolo[3,4-b]pyr-idin-5-yl)acetonitrile]
1.66e+06 | C=CC(=O)N1Cc2nc(CN3C[C@H]4CC(=O)N(c5cc(C(F)(F)F)cc(C)n5)[C@@H]4C(=O)N(C)c4cccc(C)c43)ccc2[C@H]1CC#N (racemic) [Example 319b, 2-((R/S)-6-acryloyl-2-(((3aR,11aS)-6,10-dimethyl-1-(6-meth-yl-4-(trifluorometh-yl)pyridin-2-yl)-2,11-dioxo-1,2,3,3a, 4,10,11,11a-octa-hydro-5H-benzo[b]pyrrolo[2,3-f][1,4]diazocin-5-yl)meth-yl)-6,7-dihydro-5H-pyrrolo[3,4-b]pyr-idin-5-yl)acetonitrile]
1.37e+06 | C=CC(=O)N1Cc2ncc(CN3C[C@H]4CC(=O)N(c5cc(C(F)(F)F)cc(C)n5)[C@@H]4C(=O)N(C)c4cccc(C)c43)cc2[C@H]1CC#N (racemic) [Example 320a, 2-((R/S)-6-acryloyl-3-(((3aR,11aS)-6,10-dimethyl-1-(6-meth-yl-4-(trifluorometh-yl)pyridin-2-yl)-2,11-dioxo-1,2,3,3a, 4,10,11,11a-octa-hydro-5H-benzo[b]pyrrolo[2,3-f][1,4]diazocin-5-yl)meth-yl)-6,7-dihydro-5H-pyrrolo[3,4-b]pyr-idin-5-yl)acetonitrile]
2.48e+06 | C=CC(=O)N1Cc2ncc(CN3C[C@H]4CC(=O)N(c5cc(C(F)(F)F)cc(C)n5)[C@@H]4C(=O)N(C)c4cccc(C)c43)cc2[C@@H]1CC#N (racemic) [Example 320b, 2-((S/R)-6-acryloyl-3-(((3aR,11aS)-6,10-dimethyl-1-(6-meth-yl-4-(trifluorometh-yl)pyridin-2-yl)-2,11-dioxo-1,2,3,3a, 4, 10,11,11a-octa-hydro-5H-benzo[b]pyrrolo[2,3-f][1,4]diazocin-5-yl)meth-yl)-6,7-dihydro-5H-pyrrolo[3,4-b]pyr-idin-5-yl)acetonitrile]
1.57e+06 | C=CC(=O)N1Cc2cc(CN3C[C@H]4CC(=O)N(c5cc(C(F)(F)F)cc(C)n5)[C@@H]4C(=O)N(C)c4cccc(C)c43)cnc2[C@@H]1CC#N (racemic) [Example 321a, 2-((S/R)-6-acryloyl-3-(((3aR,11aS)-6,10-dimethyl-1-(6-meth-yl-4-(trifluorometh-yl)pyridin-2-yl)-2,11-dioxo-1,2,3,3a, 4,10,11,11a-octa-hydro-5H-benzo[b]pyrrolo[2,3-f][1,4]diazocin-5-yl)meth-yl)-6,7-dihydro-5H-pyrrolo[3,4-b]pyr-idin-7-yl)acetonitrile]
